Reference: ChEMBL document CHEMBL1150847, “New lactone-containing metabolites from a marine-derived bacterium of the genus Streptomyces” (J Nat Prod, 2001)
The source made the active and inactive calls. No cut-off for these calls is given here.

Tested on: Candida albicans
Assay: Antifungal activity against Candida albicans by paper disk method
Format: functional, organism-based

Structure (SMILES) | Activity
CC(C)CC[C@@H]1C(=O)O[C@@H](C)[C@@H]1O | Active
CC(=O)C(C)CCCCCC1C=CC(=O)O1 (configuration not stated) | Active
CC(C)(O)CCCCCC1C=CC(=O)O1 (configuration not stated) | Active
CCC(C)C[C@H]1C(=O)O[C@@H](C)[C@@H]1O (some centres not stated) | Active
CCCC[C@H]1C(=O)O[C@@H](C)[C@@H]1O | Active
CCC(C)(O)CCCCCC1C=CC(=O)O1 (configuration not stated) | Active
CC(C)CC[C@H]1C(=O)O[C@@H](C)[C@@H]1O | Active
